Test results: paper PMC11322164 (Scientific Reports, 2024)

System: PAO1
Assay: Salt sensitivity assay
Type: cell-based, P. aeruginosa

MIC (CaCl2 (2.5 mM)): 2 µM | MIC (FeCl3 (4 μM)): 1 µM | MIC (KCl (4.5 mM)): 1 µM | MIC (MgCl2 (1 mM)): 1 µM | MIC (NH4Cl (6 μM)): 1 µM | MIC (NaCl (150 mM)): 0.5 µM | MIC (ZnCl2 (8 mM)): 1 µM
Substance: Polymyxin B
MBC (CaCl2 (2.5 mM)): 2 µM | MBC (FeCl3 (4 μM)): 1 µM | MBC (KCl (4.5 mM)): 1 µM | MBC (MgCl2 (1 mM)): 1 µM | MBC (NH4Cl (6 μM)): 1 µM | MBC (NaCl (150 mM)): 0.5 µM | MBC (ZnCl2 (8 mM)): 1 µM
